# In patent publication US11993604B2, “Substituted pyrazolo[4,3-H]quinazolines as protein kinase inhibitors” (SHENGKE PHARMACEUTICALS (JIANGSU) LTD., priority 2017, dated 2024):
# Counter-ions that a name gives are not always drawn.
# Experiments:
# [1] = biological target: CDK6/cyclin D1 (Homo sapiens, UniProt Q00534); experiment: Biochemical kinase inhibition test, CDK6/cyclin D1 (similar method); conditions: for IC50: three-fold serial dilution from 10 μM, 10 μM ATP, read-out: CDK6/D1 (nM), enzyme inhibitory activity IC50; for selectivity for CDK6/cyclin D1 relative to CDK4/cyclin D1 (enzyme inhibitory activity): CDK6/cyclin D1 versus CDK4/cyclin D1
# Sequence of CDK6/cyclin D1 (Q00534 whole entry, species assumed): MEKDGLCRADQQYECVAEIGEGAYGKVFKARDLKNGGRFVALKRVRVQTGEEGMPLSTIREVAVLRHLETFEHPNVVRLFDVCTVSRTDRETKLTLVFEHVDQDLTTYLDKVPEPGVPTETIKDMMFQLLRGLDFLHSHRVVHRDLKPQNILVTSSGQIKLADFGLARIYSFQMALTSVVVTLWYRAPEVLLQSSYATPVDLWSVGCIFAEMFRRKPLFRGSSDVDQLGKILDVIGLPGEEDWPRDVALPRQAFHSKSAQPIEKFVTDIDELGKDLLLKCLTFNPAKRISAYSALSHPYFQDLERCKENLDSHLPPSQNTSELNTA
# Sequence of CDK6/cyclin D1 (P24385 whole entry partner, species assumed): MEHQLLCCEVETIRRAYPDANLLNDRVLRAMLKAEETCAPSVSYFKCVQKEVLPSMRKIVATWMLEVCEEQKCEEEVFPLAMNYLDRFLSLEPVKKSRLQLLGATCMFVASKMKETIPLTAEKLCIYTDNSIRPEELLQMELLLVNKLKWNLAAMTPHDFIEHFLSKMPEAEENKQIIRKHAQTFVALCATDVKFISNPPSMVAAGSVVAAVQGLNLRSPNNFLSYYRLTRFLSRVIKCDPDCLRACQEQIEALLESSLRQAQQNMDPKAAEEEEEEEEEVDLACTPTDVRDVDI
# Procedure: Potency determination of biochemical kinase inhibition test. Kinase activity test and IC50 determination. Firstly, 10 ng of recombinant CDK4/Cyclin D1 (Life Technologies PV4204) was diluted in kinase buffer (20 mM Tris pH 7.5, 10 mM MgCl2, 0.01% NP-40, 2 mM DTT), and was incubated with inhibitors at the indicated concentration at room temperature for 30 minutes. The kinase reaction was initiated by adding […] (1.5 μM) of recombinant retinoblastoma protein, 5 μM ATP and 10μ Ci γ-32P-ATP. The reaction was incubated at 30° C. for 20 minutes, and was terminated by adding 2× Laemmli sample buffer, heated at 95° C. for three minutes, and the resulting solution was dissolved with 12% acrylamide SDS-PAGE and autoradiographed. A densitometer (Bio-Rad) was used to quantify the corresponding phosphorylated substrate protein bands. The resulting density values were plotted as a function of the log drug concentration using Prism 4 Graphpad software. IC50 values were determined by plotting a non-linear regression curve with a variable slope.
# The inhibitory activity of the compounds disclosed herein against CDK6/cyclin D1 was tested by a similar method.
# The compounds were tested in a three-fold serial dilution from the starting concentration of 10 μM, over 10-fold of IC50. The control compound, staurosporine, was tested in a four-fold serial dilution from the starting concentration of 20 μM, over 10-fold of IC50. These reactions took place in the presence of 10 μM ATP.
# [2] = biological target: T1, recombinant CDK4/Cyclin D1 (Homo sapiens, UniProt P11802); experiment: Biochemical kinase inhibition test, CDK4/Cyclin D1 (32P-ATP, retinoblastoma protein substrate); conditions: three-fold serial dilution from 10 μM; 10 μM ATP; read-out: CDK4/D1 (nM), enzyme inhibitory activity IC50
# T1 construct: purchased Life Technologies PV4204
# T1 sequence (P11802 whole entry): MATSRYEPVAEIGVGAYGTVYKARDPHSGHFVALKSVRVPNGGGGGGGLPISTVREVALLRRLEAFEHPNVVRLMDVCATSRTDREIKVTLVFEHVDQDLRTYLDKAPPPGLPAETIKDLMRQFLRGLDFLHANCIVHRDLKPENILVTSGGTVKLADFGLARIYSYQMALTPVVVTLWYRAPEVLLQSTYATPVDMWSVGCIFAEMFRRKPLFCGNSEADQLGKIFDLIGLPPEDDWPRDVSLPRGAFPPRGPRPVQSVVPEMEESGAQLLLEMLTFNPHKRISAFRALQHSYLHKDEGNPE
# T1 sequence (P24385 whole entry partner): as the sequence (P24385 whole entry partner, species assumed) above
Structure (SMILES),IC50 [1] [nM],IC50 [2] [nM],selectivity for CDK6/cyclin D1 relative to CDK4/cyclin D1 (enzyme inhibitory activity) [1]
"CC(C)n1ncc2ccc3cnc(Nc4ccc(N5CCNCC5)cn4)nc3c21 [Compound I-1, 1-isopropyl-N-(5-(piperazin-1-yl)pyridin-2-yl)-1H-pyrazolo[4,3-h]quinazolin-8-amine hydrochloride]",< 1,< 1,–
Cc1nc(Nc2ncc3ccc4cnn(C(C)C)c4c3n2)ccc1N1CCNCC1 [Compound I-2],1 to 5,1 to 5,–
Cc1cc(Nc2ncc3ccc4cnn(C(C)C)c4c3n2)ncc1N1CCNCC1 [Compound I-3],10 to 20,5 to 10,–
CC(C)n1ncc2ccc3cnc(Nc4ccc(N5CCN(C)CC5)cn4)nc3c21 [Compound I-4],1 to 5,1 to 5,–
Cc1cc(Nc2ncc3ccc4cnn(C(C)C)c4c3n2)ncc1N1CCN(C)CC1 [Compound I-5],10 to 20,5 to 10,–
Cc1nc(Nc2ncc3ccc4cnn(C(C)C)c4c3n2)ccc1N1CCN(C)CC1 [Compound I-6],< 1,1 to 5,–
CCN1CCN(c2ccc(Nc3ncc4ccc5cnn(C(C)C)c5c4n3)nc2)CC1 [Compound I-7],1 to 5,1 to 5,–
CCN1CCN(c2cnc(Nc3ncc4ccc5cnn(C(C)C)c5c4n3)cc2C)CC1 [Compound I-8],10 to 20,5 to 10,–
CCN1CCN(c2ccc(Nc3ncc4ccc5cnn(C(C)C)c5c4n3)nc2C)CC1 [Compound I-9],< 1,1 to 5,–
CC(C)n1ncc2ccc3cnc(Nc4cc(F)c(N5CCNCC5)cn4)nc3c21 [Compound I-10],10 to 20,5 to 10,–
CC(C)n1ncc2ccc3cnc(Nc4ccc(N5CCNCC5)c(F)n4)nc3c21 [Compound I-11],5 to 10,1 to 5,–
CC(C)n1ncc2ccc3cnc(Nc4ccc(N5CCN[C@@H](C)C5)cn4)nc3c21 [Compound I-12],5 to 10,5 to 10,–
CC(C)n1ncc2ccc3cnc(Nc4ccc(N5C[C@@H](C)N[C@@H](C)C5)cn4)nc3c21 [Compound I-13],5 to 10,5 to 10,–
CC(C)n1ncc2ccc3cnc(Nc4ccc(N5CCNC(C)(C)C5)cn4)nc3c21 [Compound I-14],10 to 20,10 to 20,–
CC(C)n1ncc2ccc3cnc(Nc4ccc(N5CCOCC5)cn4)nc3c21 [Compound I-15],1 to 5,1 to 5,–
CC1CN(c2ccc(Nc3ncc4ccc5cnn(C(C)C)c5c4n3)nc2)CCO1 (stereo not shown) [Compound I-16],5 to 10,5 to 10,–
CC(C)n1ncc2ccc3cnc(Nc4ccc(N5C[C@@H](C)O[C@@H](C)C5)cn4)nc3c21 [Compound I-17],5 to 10,5 to 10,–
Cc1nc(Nc2ncc3ccc4cnn(C(C)C)c4c3n2)ccc1N1CCOCC1 [Compound I-18],< 1,1 to 5,–
Cc1cc(Nc2ncc3ccc4cnn(C(C)C)c4c3n2)ncc1N1CCOCC1 [Compound I-19],10 to 20,20 to 50,–
Cc1cc(Nc2ncc3ccc4cnn(C(C)C)c4c3n2)ncc1N1CCOC(C)C1 (stereo not shown) [Compound I-20],20 to 50,20 to 50,–
Cc1nc(Nc2ncc3ccc4cnn(C(C)C)c4c3n2)ccc1N1CCOC(C)C1 (stereo not shown) [Compound I-21],10 to 20,5 to 10,–
CC(C)n1ncc2ccc3cnc(Nc4ccc(N5CCCNCC5)cn4)nc3c21 [Compound I-22],10 to 20,10 to 20,–
CC(C)n1ncc2ccc3cnc(Nc4ccc(N5CCCCC5)cn4)nc3c21 [Compound I-23],50 to 100,50 to 100,–
CC(C)n1ncc2ccc3cnc(Nc4ccc(N5CCC(N(C)C)CC5)cn4)nc3c21 [Compound I-24],20 to 50,20 to 50,–

Structure (SMILES),IC50 [1] [nM],IC50 [2] [nM],selectivity for CDK6/cyclin D1 relative to CDK4/cyclin D1 (enzyme inhibitory activity) [1]
CC(C)n1ncc2ccc3cnc(Nc4ccc(N5CCC6(CC5)CNC6)cn4)nc3c21 [Compound I-25],1 to 5,1 to 5,–
CC(C)n1ncc2ccc3cnc(Nc4ccc(N5CC6(CCNCC6)C5)cn4)nc3c21 [Compound I-26],1 to 5,1 to 5,–
CC(C)n1ncc2ccc3cnc(Nc4ccc(N5CCC6(CCNCC6)C5)cn4)nc3c21 [Compound I-27],20 to 50,20 to 50,–
CC(C)n1ncc2ccc3cnc(Nc4ccc(N5CCS(=O)(=O)CC5)cn4)nc3c21 [Compound I-28],10 to 20,10 to 20,–
Cc1cc(Nc2ncc3ccc4cnn(C(C)C)c4c3n2)ncc1N1CCS(=O)(=O)CC1 [Compound I-29],20 to 50,20 to 50,–
Cc1nc(Nc2ncc3ccc4cnn(C(C)C)c4c3n2)ccc1N1CCS(=O)(=O)CC1 [Compound I-30],10 to 20,10 to 20,–
CC(C)n1ncc2ccc3cnc(Nc4ccc(C(=O)N5CCC(N6CCN(C)CC6)CC5)cn4)nc3c21 [Compound I-31],50 to 100,50 to 100,–
COc1ccc2cc(Nc3ncc4ccc5cnn(C(C)C)c5c4n3)ccc2n1 [Compound I-32],20 to 50,20 to 50,–
CC(C)n1ncc2ccc3cnc(N4CCC[C@@H]4c4cccc(F)c4)nc3c21 [Compound I-33],50 to 100,50 to 100,–
CC(C)n1ncc2ccc3cnc(N4CCC[C@@H]4c4cc(F)ccc4F)nc3c21 [Compound I-34],50 to 100,50 to 100,–
c1cc(Nc2ncc3ccc4cnn(C5CCCC5)c4c3n2)ncc1N1CCNCC1 [Compound I-35],1 to 5,1 to 5,–
Cc1cc(Nc2ncc3ccc4cnn(C5CCCC5)c4c3n2)ncc1N1CCNCC1 [Compound I-36],10 to 20,10 to 20,–
Cc1nc(Nc2ncc3ccc4cnn(C5CCCC5)c4c3n2)ccc1N1CCNCC1 [Compound I-37],< 1,1 to 5,–
CN1CCN(c2ccc(Nc3ncc4ccc5cnn(C6CCCC6)c5c4n3)nc2)CC1 [Compound I-38],5 to 10,1 to 5,–
CCN1CCN(c2ccc(Nc3ncc4ccc5cnn(C6CCCC6)c5c4n3)nc2)CC1 [Compound I-39],1 to 5,< 1,–
CCN1CCN(c2ccc(Nc3ncc4ccc5cnn(C6CCCC6)c5c4n3)nc2C)CC1 [Compound I-40],1 to 5,1 to 5,–
CCN1CCN(c2cnc(Nc3ncc4ccc5cnn(C6CCCC6)c5c4n3)cc2C)CC1 [Compound I-41],10 to 20,10 to 20,–
c1cc(Nc2ncc3ccc4cnn(C5CCCC5)c4c3n2)ncc1N1CCOCC1 [Compound I-42],1 to 5,1 to 5,–
Cc1nc(Nc2ncc3ccc4cnn(C5CCCC5)c4c3n2)ccc1N1CCOCC1 [Compound I-43],1 to 5,1 to 5,–
Cc1cc(Nc2ncc3ccc4cnn(C5CCCC5)c4c3n2)ncc1N1CCOCC1 [Compound I-44],10 to 20,10 to 20,–
CCn1ncc2ccc3cnc(Nc4ccc(N5CCNCC5)cn4)nc3c21.Cl [Compound I-45],5 to 10,10 to 20,about 3 times
CCn1ncc2ccc3cnc(Nc4cc(F)c(N5CCNCC5)cn4)nc3c21.Cl [Compound I-46],10 to 20,20 to 50,about 2 times
CCn1ncc2ccc3cnc(Nc4ccc(N5CCNCC5)c(F)n4)nc3c21.Cl [Compound I-47],5 to 10,10 to 20,about 2 times
